# Results reported in ChEMBL document CHEMBL5029197, “Synthesis and Metabolism of BTN3A1 Ligands: Studies on Diene Modifications to the Phosphoantigen Scaffold” (ACS Med Chem Lett, 2022).
# Activity calls are given as the source filed them. The rule behind the calls is not given here.
# Test system: not listed separately
# Assay: Stability of compound in human plasma assessed as parent compound remaining at 100 uM measured after 2 hrs by LC-MS analysis
# Format: ADME, cell-free
# Conditions: 2 h, 100 µM
row,Stability,Structure (SMILES)
1,Unstable,C/C(=C\CCP(=O)(OCOC(=O)C(C)(C)C)OCOC(=O)C(C)(C)C)CO
2,Unstable,CC(=O)OC/C(C)=C/C=C/P(=O)(OCOC(=O)C(C)(C)C)OCOC(=O)C(C)(C)C

# Same assay, conditions: read-out: Stability
row,Structure (SMILES),"remaining at 2 h, 100 µM [%]"
1,CC(C)=C/C=C/P(=O)(OCOC(=O)C(C)(C)C)OCOC(=O)C(C)(C)C,6
2,COC(=O)[C@H](C)NP(=O)(/C=C/C=C(C)C)Oc1ccccc1 (some centres not stated),69
3,COP(=O)(/C=C/C=C(C)C)OCOC(=O)C(C)(C)C (configuration not stated),62
4,CC(C)=C/C=C/P(=O)(Oc1ccccc1)Oc1ccccc1,89
5,CC(C)=C/C=C/P(=O)(OCOC(=O)C(C)(C)C)Oc1ccccc1 (configuration not stated),48

# Test system: not listed separately
# Assay: Stability of compound in human plasma assessed as parent compound remaining at 100 uM measured after 24 hrs by LC-MS analysis
# Format: ADME, cell-free
# Conditions: 24 h, 100 µM
row,Stability,Structure (SMILES)
1,Unstable,CC(C)=C/C=C/P(=O)(OCOC(=O)C(C)(C)C)OCOC(=O)C(C)(C)C
2,Unstable,C/C(=C\CCP(=O)(OCOC(=O)C(C)(C)C)OCOC(=O)C(C)(C)C)CO
3,Unstable,CC(=O)OC/C(C)=C/C=C/P(=O)(OCOC(=O)C(C)(C)C)OCOC(=O)C(C)(C)C

# Same assay, conditions: read-out: Stability
row,Structure (SMILES),"remaining at 24 h, 100 µM [%]"
1,COC(=O)[C@H](C)NP(=O)(/C=C/C=C(C)C)Oc1ccccc1 (some centres not stated),63
2,COP(=O)(/C=C/C=C(C)C)OCOC(=O)C(C)(C)C (configuration not stated),4
3,CC(C)=C/C=C/P(=O)(Oc1ccccc1)Oc1ccccc1,73
4,CC(C)=C/C=C/P(=O)(OCOC(=O)C(C)(C)C)Oc1ccccc1 (configuration not stated),16

# Test system: not listed separately
# Assay: (§1) Induction of cell proliferation in human Vgamma9Vdelta2-T cells stimulated with human PBMC for 3 days followed by compound washout and supplemented with IL2 every 3 days for 11 days by flow cytometry analysis
# Format: functional, cell-based
# Conditions: not given
row,Structure (SMILES),EC50 [µM]
1,CC(C)=C/C=C/P(=O)([O-])[O-].[Na+].[Na+],> 100
2,CC(C)=C/C=C/P(=O)(OCOC(=O)C(C)(C)C)OCOC(=O)C(C)(C)C,0.29
3,COC(=O)[C@H](C)NP(=O)(/C=C/C=C(C)C)Oc1ccccc1 (some centres not stated),11
4,COP(=O)(/C=C/C=C(C)C)OCOC(=O)C(C)(C)C (configuration not stated),0.13
5,C/C(=C\C=C\P(=O)(O)O)CO,15
6,CC(=O)OC/C(C)=C/C=C/P(=O)(OCOC(=O)C(C)(C)C)OCOC(=O)C(C)(C)C,60
7,CC(C)=C/C=C/P(=O)(OCOC(=O)C(C)(C)C)Oc1ccccc1 (configuration not stated),0.75

# Test system: Vgamma9Vdelta2-T cell
# Assay: as §1
# Format: functional, cell-based
# Conditions: time 3.0 day
row,Structure (SMILES),Activity
1,CC(C)=C/C=C/P(=O)(Oc1ccccc1)Oc1ccccc1,inactive

# Test system: K562
# Assay: Cytotoxicity against human K562 cells assessed as reduction in cell viability measured after 72 hrs by colorimetric assay
# Format: cell-based
# Conditions: k562, 72 h
row,Structure (SMILES),Activity [µM]
1,CC(C)=C/C=C/P(=O)([O-])[O-].[Na+].[Na+],> 100
2,CC(C)=C/C=C/P(=O)(OCOC(=O)C(C)(C)C)OCOC(=O)C(C)(C)C,> 100
3,COC(=O)[C@H](C)NP(=O)(/C=C/C=C(C)C)Oc1ccccc1 (some centres not stated),> 100
4,COP(=O)(/C=C/C=C(C)C)OCOC(=O)C(C)(C)C (configuration not stated),20
5,CC(C)=C/C=C/P(=O)(Oc1ccccc1)Oc1ccccc1,> 100
6,C/C(=C\CCP(=O)(OCOC(=O)C(C)(C)C)OCOC(=O)C(C)(C)C)CO,> 100
7,C/C(=C\C=C\P(=O)(O)O)CO,> 100
8,CC(=O)OC/C(C)=C/C=C/P(=O)(OCOC(=O)C(C)(C)C)OCOC(=O)C(C)(C)C,> 100
9,CC(C)=C/C=C/P(=O)(OCOC(=O)C(C)(C)C)Oc1ccccc1 (configuration not stated),100

# Test system: not listed separately
# Assay: (§2) Induction of IFN-gamma production in human Vgamma9Vdelta2-T cells incubated for 4 mins with compound-loaded K562 cells followed by compound washout and measured after 20 hrs by ELISA
# Format: functional, cell-based
# Conditions: Vgamma9Vdelta2 T cell
row,EC50 [µM],Structure (SMILES)
1,> 100,CC(C)=C/C=C/P(=O)(OCOC(=O)C(C)(C)C)OCOC(=O)C(C)(C)C
2,> 100,COP(=O)(/C=C/C=C(C)C)OCOC(=O)C(C)(C)C (configuration not stated)
3,> 100,CC(=O)OC/C(C)=C/C=C/P(=O)(OCOC(=O)C(C)(C)C)OCOC(=O)C(C)(C)C

row,Structure (SMILES),EC50 [µM]
1,COC(=O)[C@H](C)NP(=O)(/C=C/C=C(C)C)Oc1ccccc1 (some centres not stated),> 100
2,CC(C)=C/C=C/P(=O)(OCOC(=O)C(C)(C)C)Oc1ccccc1 (configuration not stated),> 100

# Test system: Vgamma9Vdelta2-T cell
# Assay: as §2
# Format: functional, cell-based
# Conditions: not given
row,Structure (SMILES),Activity
1,CC(C)=C/C=C/P(=O)(Oc1ccccc1)Oc1ccccc1,inactive

# Test system: not listed separately
# Assay: (§3) Induction of IFN-gamma production in human Vgamma9Vdelta2-T cells incubated for 15 mins with compound-loaded K562 cells followed by compound washout and measured after 20 hrs by ELISA
# Format: functional, cell-based
# Conditions: Vgamma9Vdelta2 T cell
row,EC50 [µM],Structure (SMILES)
1,> 100,CC(C)=C/C=C/P(=O)(OCOC(=O)C(C)(C)C)OCOC(=O)C(C)(C)C
2,98,COP(=O)(/C=C/C=C(C)C)OCOC(=O)C(C)(C)C (configuration not stated)
3,0.043,C/C(=C\CCP(=O)(OCOC(=O)C(C)(C)C)OCOC(=O)C(C)(C)C)CO
4,> 100,CC(=O)OC/C(C)=C/C=C/P(=O)(OCOC(=O)C(C)(C)C)OCOC(=O)C(C)(C)C

row,Structure (SMILES),EC50 [µM]
1,COC(=O)[C@H](C)NP(=O)(/C=C/C=C(C)C)Oc1ccccc1 (some centres not stated),> 100
2,CC(C)=C/C=C/P(=O)(OCOC(=O)C(C)(C)C)Oc1ccccc1 (configuration not stated),> 100

# Test system: Vgamma9Vdelta2-T cell
# Assay: as §3
# Format: functional, cell-based
# Conditions: not given
row,Structure (SMILES),Activity
1,CC(C)=C/C=C/P(=O)(Oc1ccccc1)Oc1ccccc1,inactive

# Test system: not listed separately
# Assay: (§4) Induction of IFN-gamma production in human Vgamma9Vdelta2-T cells incubated for 60 mins with compound-loaded K562 cells followed by compound washout and measured after 20 hrs by ELISA
# Format: functional, cell-based
# Conditions: Vgamma9Vdelta2 T cell
row,EC50 [µM],Structure (SMILES)
1,52,CC(C)=C/C=C/P(=O)(OCOC(=O)C(C)(C)C)OCOC(=O)C(C)(C)C
2,37,COP(=O)(/C=C/C=C(C)C)OCOC(=O)C(C)(C)C (configuration not stated)
3,0.03,C/C(=C\CCP(=O)(OCOC(=O)C(C)(C)C)OCOC(=O)C(C)(C)C)CO
4,> 100,CC(=O)OC/C(C)=C/C=C/P(=O)(OCOC(=O)C(C)(C)C)OCOC(=O)C(C)(C)C

row,Structure (SMILES),EC50 [µM]
1,COC(=O)[C@H](C)NP(=O)(/C=C/C=C(C)C)Oc1ccccc1 (some centres not stated),> 100
2,CC(C)=C/C=C/P(=O)(OCOC(=O)C(C)(C)C)Oc1ccccc1 (configuration not stated),29

# Test system: Vgamma9Vdelta2-T cell
# Assay: as §4
# Format: functional, cell-based
# Conditions: not given
row,Structure (SMILES),Activity
1,CC(C)=C/C=C/P(=O)(Oc1ccccc1)Oc1ccccc1,inactive

# Test system: not listed separately
# Assay: (§5) Induction of IFN-gamma production in human Vgamma9Vdelta2-T cells incubated for 240 mins with compound-loaded K562 cells followed by compound washout and measured after 20 hrs by ELISA
# Format: functional, cell-based
# Conditions: Vgamma9Vdelta2 T cell
row,EC50 [µM],Structure (SMILES)
1,18,CC(C)=C/C=C/P(=O)(OCOC(=O)C(C)(C)C)OCOC(=O)C(C)(C)C
2,11,COP(=O)(/C=C/C=C(C)C)OCOC(=O)C(C)(C)C (configuration not stated)
3,0.024,C/C(=C\CCP(=O)(OCOC(=O)C(C)(C)C)OCOC(=O)C(C)(C)C)CO
4,38,CC(=O)OC/C(C)=C/C=C/P(=O)(OCOC(=O)C(C)(C)C)OCOC(=O)C(C)(C)C

row,Structure (SMILES),EC50 [µM]
1,COC(=O)[C@H](C)NP(=O)(/C=C/C=C(C)C)Oc1ccccc1 (some centres not stated),75
2,CC(C)=C/C=C/P(=O)(OCOC(=O)C(C)(C)C)Oc1ccccc1 (configuration not stated),9.1

# Test system: Vgamma9Vdelta2-T cell
# Assay: as §5
# Format: functional, cell-based
# Conditions: not given
row,Structure (SMILES),Activity
1,CC(C)=C/C=C/P(=O)(Oc1ccccc1)Oc1ccccc1,inactive

# Test system: not listed separately
# Assay: Drug metabolism in human K562 cells assessed as free phosphonic diacid metabolite formation at 100 uM incubated for 1 hr by LC-MS analysis
# Format: ADME, cell-based
# Conditions: k562, 1 h
row,Structure (SMILES),Drug metabolism
1,CC(C)=C/C=C/P(=O)(OCOC(=O)C(C)(C)C)OCOC(=O)C(C)(C)C,Metabolite_Detected
2,COC(=O)[C@H](C)NP(=O)(/C=C/C=C(C)C)Oc1ccccc1 (some centres not stated),Metabolite_Detected
3,CC(=O)OC/C(C)=C/C=C/P(=O)(OCOC(=O)C(C)(C)C)OCOC(=O)C(C)(C)C,Metabolite_Detected
4,CC(C)=C/C=C/P(=O)(OCOC(=O)C(C)(C)C)Oc1ccccc1 (configuration not stated),Metabolite_Detected

# Test system: not listed separately
# Assay: Drug metabolism in human K562 cells assessed as monoacid methyl ester metabolite formation at 100 uM incubated for 1 hr by LC-MS analysis
# Format: ADME, cell-based
# Conditions: k562, 1 h
row,Structure (SMILES),Drug metabolism
1,COP(=O)(/C=C/C=C(C)C)OCOC(=O)C(C)(C)C (configuration not stated),Metabolite_Detected
2,CC(C)=C/C=C/P(=O)(Oc1ccccc1)Oc1ccccc1,Metabolite_Notdetected

# Biological target: Butyrophilin subfamily 3 member A1 (Homo sapiens) (UniProt O00481)
# Assay: Displacement of GDP-BODIPY probe from BTN3A1 full intracellular domain (unknown origin) at […] measured after 60 mins by fluorescence polarization assay
# Conditions: not given
# Chain of Butyrophilin subfamily 3 member A1 (Homo sapiens) (O00481 30-513 limits assumed): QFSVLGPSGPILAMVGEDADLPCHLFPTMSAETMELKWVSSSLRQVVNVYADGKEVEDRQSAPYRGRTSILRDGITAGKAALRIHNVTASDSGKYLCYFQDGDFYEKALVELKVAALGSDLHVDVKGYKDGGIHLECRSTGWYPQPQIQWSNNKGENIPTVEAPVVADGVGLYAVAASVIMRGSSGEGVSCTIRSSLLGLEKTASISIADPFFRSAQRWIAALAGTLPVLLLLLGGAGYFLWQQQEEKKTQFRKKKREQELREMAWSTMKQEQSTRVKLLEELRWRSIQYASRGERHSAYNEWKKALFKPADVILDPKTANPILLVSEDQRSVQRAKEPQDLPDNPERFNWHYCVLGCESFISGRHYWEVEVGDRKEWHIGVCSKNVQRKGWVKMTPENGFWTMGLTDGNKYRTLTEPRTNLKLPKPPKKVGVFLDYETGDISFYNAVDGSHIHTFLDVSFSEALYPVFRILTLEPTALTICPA
row,Structure (SMILES),Activity
1,CC(C)=C/C=C/P(=O)([O-])[O-].[Na+].[Na+],Active
2,C/C(=C\CCP(=O)(O)O)CO,inactive
3,C/C(=C\C=C\P(=O)(O)O)CO,Active
